Bridge positions count the residues as written; N and C are the ends. Square brackets hold non-standard residues; d marks the D form. Peptide text beside a SMILES is read from it. * marks the point of attachment. ξ: configuration not given here. Phe(3-CF3) = N[C@@H](Cc1cccc(C(F)(F)F)c1)C(=O)O; Phe(4-COOH) = N[C@@H](Cc1ccc(C(=O)O)cc1)C(=O)O; Bip = N[C@@H](Cc1ccc(-c2ccccc2)cc1)C(=O)O; NH(CH2)14COOH = O=C(O)CCCCCCCCCCCCCCN*; Phe(3-Me) = Cc1cccc(C[C@H](N)C(=O)O)c1; Val(3-OH) = CC(C)(O)[C@H](N)C(=O)O; hArg = N=C(N)NCCCC[C@H](N)C(=O)O; 4Pal = N[C@@H](Cc1ccncc1)C(=O)O; d2Pal = N[C@H](Cc1ccccn1)C(=O)O; Cha = N[C@@H](CC1CCCCC1)C(=O)O; Cit = NC(=O)NCCC[C@H](N)C(=O)O; Thr(3ξ) = CC(O)[C@H](N)C(=O)O; NMeNle = CCCC[C@H](NC)C(=O)O; 12Ado = NCCCCCCCCCCCC(=O)O; hSer = N[C@@H](CCO)C(=O)O; Carboxymethyl = O=C(O)C*; Orn = NCCC[C@H](N)C(=O)O; Aun = NCCCCCCCCCCC(=O)O; Dab = NCC[C@H](N)C(=O)O; Dap = NC[C@H](N)C(=O)O; AEEA = NCCOCCOCC(=O)O; Piv = CC(C)(C)C(=O)*
What follows are compounds tested against T1, PD-1/PD-L1 interaction (PE-labeled human PD-L1-Ig binding to Jurkat cell line over-expressing human PD-1) (Homo sapiens, UniProt Q15116) (assay: Jurkat-PD-1 Cell Binding High-Content Screening Assay (CBA)). Settings: Jurkat cell line over-expressing human PD-1; PE-labeled PD-L1-Ig 20 nM final; read-out: Jurkat hPD1-PDL1 IC50.
T1 construct: expressed in transfected cells; host or cells: Jurkat
T1 sequence (Q15116 25-288): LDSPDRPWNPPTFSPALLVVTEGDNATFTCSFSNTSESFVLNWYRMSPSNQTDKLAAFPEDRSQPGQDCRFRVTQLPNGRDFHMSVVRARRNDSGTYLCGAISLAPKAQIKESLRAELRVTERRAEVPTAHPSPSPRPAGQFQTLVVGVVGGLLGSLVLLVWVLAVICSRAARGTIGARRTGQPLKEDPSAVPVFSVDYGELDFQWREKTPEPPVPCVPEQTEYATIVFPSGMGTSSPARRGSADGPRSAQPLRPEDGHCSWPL
Type: cell-based
Procedure, shortened: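 Human PD-L1-Ig carrying a covalent PE label on its Ig tag serves as the probe, applied at 20 nM final to compound-treated (2 h, 37° C) Jurkat-hPD-1 cells in medium with 10% fetal calf serum. After one hour, fixation and nuclear staining precede high-content image analysis.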

IC50	Structure (SMILES)
185 nM	CC(C)C[C@H]1NC(=O)[C@H](CCCN)NC(=O)[C@H](Cc2ccc(C(=O)O)cc2)NC(=O)[C@H](Cc2ccc(-c3ccccc3)cc2)NC(=O)[C@H](Cc2ccc(C(=O)O)cc2)NC(=O)[C@H](Cc2cccc(C(F)(F)F)c2)NC(=O)[C@H](CC(=O)O)NC(=O)[C@H](Cc2ccc(OCC(=O)O)cc2)NC(=O)[C@H](CO)NC(=O)CSC[C@@H](C(=O)N[C@@H](CCN)C(=O)NCCOCCOCC(=O)N[C@@H](CO)C(=O)N[C@@H](CO)C(=O)N[C@@H](CO)C(=O)N[C@@H](CO)C(=O)N[C@@H](CCC(=O)NCCCCCCCCCCCCCCC(=O)O)C(=O)O)NC(=O)[C@H](CO)NC(=O)[C@H](C(C)(C)O)NC(=O)[C@H](CC2CCCCC2)NC(=O)[C@H](CCN)NC1=O [Compound 3900] ({CH2CO}-SY(Carboxymethyl)D[Phe(3-CF3)][Phe(4-COOH)][Bip][Phe(4-COOH)][Orn][dL][Dab][Cha][Val(3-OH)]SC[Dab][AEEA]SSSSE(NH(CH2)14COOH)-OH; thioether N-14)
13.3 nM	Cc1cccc(C[C@@H]2NC(=O)[C@H](CC(=O)O)NC(=O)[C@H](Cc3ccc(OCC(=O)O)cc3)NC(=O)[C@H](C(C)O)NC(=O)CSC[C@@H](C(=O)N[C@@H](CCCCN)C(=O)NCCCCCCCCCCC(=O)O)NC(=O)[C@H](CCCCN)NC(=O)[C@H](C(C)C)NC(=O)[C@H](CC3CCCCC3)NC(=O)[C@H](CCN)NC(=O)[C@@H](CC(C)C)NC(=O)[C@H](CCCN)NC(=O)[C@H](C(C)C)NC(=O)[C@H](Cc3ccc(-c4ccccc4)cc3)NC(=O)[C@H](C(C)C)NC2=O)c1 (stereo partly drawn) [Compound 3472] ({CH2CO}-[Thr(3ξ)]Y(Carboxymethyl)D[Phe(3-Me)]V[Bip]V[Orn][dL][Dab][Cha]VKCK[Aun]-OH; thioether N-14)
23.6 nM	Cc1cccc(C[C@@H]2NC(=O)[C@H](CC(=O)O)NC(=O)[C@H](Cc3ccc(OCC(=O)O)cc3)NC(=O)[C@H](CO)NC(=O)CSC[C@@H](C(=O)N[C@@H](CCO)C(=O)N[C@@H](CO)C(=O)NCCCCCCCCCCCC(=O)O)NC(=O)[C@H](C(C)O)NC(=O)[C@H](C(C)C)NC(=O)[C@H](CC3CCCCC3)NC(=O)[C@H](CCN)NC(=O)[C@@H](CC(C)C)NC(=O)[C@H](CCCN)NC(=O)[C@H](CCCNC(N)=O)NC(=O)[C@H](Cc3ccc(-c4ccccc4)cc3)NC(=O)[C@H](C(C)C)NC2=O)c1 (stereo partly drawn) [Compound 3569] ({CH2CO}-SY(Carboxymethyl)D[Phe(3-Me)]V[Bip][Cit][Orn][dL][Dab][Cha]V[Thr(3ξ)]C[hSer]S[12Ado]-OH; thioether N-14)
68.9 nM	Cc1cccc(C[C@@H]2NC(=O)[C@H](CC(=O)O)NC(=O)[C@H](Cc3ccc(OCC(=O)O)cc3)NC(=O)[C@H](CN)NC(=O)CSC[C@@H](C(=O)N[C@@H](CCN)C(=O)NCCCCCCCCCCC(=O)O)NC(=O)[C@@H](Cc3ccccn3)NC(=O)[C@H](C(C)C)NC(=O)[C@H](CC3CCCCC3)NC(=O)[C@H](CCN)NC(=O)[C@@H](CC(C)C)NC(=O)[C@H](CCCN)NC(=O)[C@H](Cc3ccc(O)cc3)NC(=O)[C@H](Cc3ccc(-c4ccccc4)cc3)NC(=O)[C@H](C(C)C)NC2=O)c1 [Compound 2764] ({CH2CO}-[Dap]Y(Carboxymethyl)D[Phe(3-Me)]V[Bip]Y[Orn][dL][Dab][Cha]V[d2Pal]C[Dab][Aun]-OH; thioether N-14)
2690 nM	COc1ccc(C[C@@H]2NC(=O)[C@H](Cc3cccc(C)c3)NC(=O)[C@H](CC(=O)O)NC(=O)[C@H](Cc3ccc(C(=O)O)cc3)NC(=O)[C@H](Cc3ccncc3)NC(=O)CSC[C@@H](C(=O)N[C@@H](CCN)C(=O)NCCOCCOCC(=O)NCCOCCOCC(=O)NCCCCCCCCCCCCCCC(=O)O)NC(=O)[C@H](CO)NC(=O)[C@H](C(C)(C)O)NC(=O)[C@H](CC3CCCCC3)NC(=O)[C@H](CCN)NC(=O)[C@@H](CC(C)C)NC(=O)[C@H](CCCN)NC(=O)[C@H](Cc3ccc(C(=O)O)cc3)NC(=O)[C@H](Cc3ccc(-c4ccccc4)cc3)NC2=O)cc1 [Compound 2885] ({CH2CO}-[4Pal][Phe(4-COOH)]D[Phe(3-Me)]Y(Me)[Bip][Phe(4-COOH)][Orn][dL][Dab][Cha][Val(3-OH)]SC[Dab][AEEA][AEEA]-{NH(CH2)14COOH}; thioether N-14)
10.1 nM	Cc1cccc(C[C@@H]2NC(=O)[C@H](CC(=O)O)NC(=O)[C@H](Cc3ccc(OCC(=O)O)cc3)NC(=O)[C@H](CCN)NC(=O)CSC[C@@H](C(=O)N[C@@H](CCN)C(=O)NCCOCCOCC(=O)NCCCCCCCCCCC(=O)O)NC(=O)[C@H](CCCN)NC(=O)[C@H](C(C)C)NC(=O)[C@H](CC3CCCCC3)NC(=O)[C@H](CCN)NC(=O)[C@@H](CC(C)C)NC(=O)[C@H](CCCN)NC(=O)[C@H](Cc3ccc(O)cc3)NC(=O)[C@H](Cc3ccc(-c4ccccc4)cc3)NC(=O)[C@H](CCCCNC(=O)C(C)(C)C)NC2=O)c1 [Compound 3610] ({CH2CO}-[Dab]Y(Carboxymethyl)D[Phe(3-Me)]K(Piv)[Bip]Y[Orn][dL][Dab][Cha]V[Orn]C[Dab][AEEA][Aun]-OH; thioether N-14)
12 nM	CC(C)C[C@H]1NC(=O)[C@H](CCCN)NC(=O)[C@H](C(C)C)NC(=O)[C@H](Cc2ccc(-c3ccccc3)cc2)NC(=O)[C@H](C(C)C)NC(=O)[C@H](Cc2c[nH]c3ccccc23)NC(=O)[C@H](CC(=O)O)NC(=O)[C@H](Cc2ccc(OCC(=O)O)cc2)NC(=O)[C@H](CCCCNC(=N)N)NC(=O)CSC[C@@H](C(=O)NCCOCCOCC(=O)N[C@@H](CCCN)C(=O)NCCCCCCCCCCCC(=O)O)NC(=O)[C@H](CO)NC(=O)[C@H](C(C)C)NC(=O)[C@H](CC2CCCCC2)NC(=O)[C@H](CCN)NC1=O [Compound 3153] ({CH2CO}-[hArg]Y(Carboxymethyl)DWV[Bip]V[Orn][dL][Dab][Cha]VSC[AEEA][Orn][12Ado]-OH; thioether N-14)
59.5 nM	Cc1cccc(C[C@@H]2NC(=O)[C@H](CC(=O)O)NC(=O)[C@H](Cc3ccc(OCC(=O)O)cc3)NC(=O)[C@H](Cc3ccncc3)NC(=O)CSC[C@@H](C(=O)N[C@@H](CCN)C(=O)NCCOCCOCC(=O)NCCCCCCCCCCC(=O)O)NC(=O)[C@H](CN)NC(=O)[C@H](C(C)(C)O)NC(=O)[C@H](CC3CCCCC3)NC(=O)[C@H](CCN)NC(=O)[C@@H](CC(C)C)NC(=O)[C@H](CCCN)NC(=O)[C@H](Cc3ccc(OCC(=O)O)cc3)NC(=O)[C@H](Cc3ccc(-c4ccccc4)cc3)NC(=O)[C@H](Cc3ccc(OCC(=O)O)cc3)NC2=O)c1 [Compound 2022] ({CH2CO}-[4Pal]Y(Carboxymethyl)D[Phe(3-Me)]Y(Carboxymethyl)[Bip]Y(Carboxymethyl)[Orn][dL][Dab][Cha][Val(3-OH)][Dap]C[Dab][AEEA][Aun]-OH; thioether N-14)
34.9 nM	CCCC[C@H]1C(=O)N[C@@H](Cc2ccc(OCC(=O)O)cc2)C(=O)N[C@@H](CC(=O)O)C(=O)N[C@@H](Cc2cccc(C)c2)C(=O)N[C@@H](Cc2ccc(OCC(=O)O)cc2)C(=O)N[C@@H](Cc2ccc(-c3ccccc3)cc2)C(=O)N[C@@H](Cc2ccc(OCC(=O)O)cc2)C(=O)N[C@@H](CCCN)C(=O)N[C@H](CC(C)C)C(=O)N[C@@H](CCN)C(=O)N[C@@H](CC2CCCCC2)C(=O)N[C@@H](C(C)(C)O)C(=O)N[C@@H](CO)C(=O)N[C@H](C(=O)N[C@@H](CCN)C(=O)NCCCCCCCCCCC(=O)O)CSCC(=O)N1C [Compound 3635] ({CH2CO}-[NMeNle]Y(Carboxymethyl)D[Phe(3-Me)]Y(Carboxymethyl)[Bip]Y(Carboxymethyl)[Orn][dL][Dab][Cha][Val(3-OH)]SC[Dab][Aun]-OH; thioether N-14)
20.5 nM	Cc1cccc(C[C@@H]2NC(=O)[C@H](CC(=O)O)NC(=O)[C@H](Cc3ccc(OCC(=O)O)cc3)NC(=O)[C@H](CCCCNC(=N)N)NC(=O)CSC[C@@H](C(=O)N[C@H](CCC(=O)O)C(=O)NCCCCCCCCCCCC(=O)O)NC(=O)[C@H](C(C)O)NC(=O)[C@H](C(C)C)NC(=O)[C@H](CC3CCCCC3)NC(=O)[C@H](CCN)NC(=O)[C@@H](CC(C)C)NC(=O)[C@H](CCCN)NC(=O)[C@H](CCCNC(N)=O)NC(=O)[C@H](Cc3ccc(-c4ccccc4)cc3)NC(=O)[C@H](C(C)C)NC2=O)c1 (stereo partly drawn) [Compound 3552] ({CH2CO}-[hArg]Y(Carboxymethyl)D[Phe(3-Me)]V[Bip][Cit][Orn][dL][Dab][Cha]V[Thr(3ξ)]C[dE][12Ado]-OH; thioether N-14)
41 nM	Cc1cccc(C[C@@H]2NC(=O)[C@H](CC(=O)O)NC(=O)[C@H](Cc3ccc(OCC(=O)O)cc3)NC(=O)[C@H](Cc3ccc(OCC(=O)O)cc3)NC(=O)CSC[C@@H](C(=O)N[C@@H](CCCN)C(=O)NCCCCCCCCCCC(=O)O)NC(=O)[C@H](CO)NC(=O)[C@H](C(C)C)NC(=O)[C@H](CC(C)C)NC(=O)[C@H](CCN)NC(=O)[C@@H](CC(C)C)NC(=O)[C@H](CCCN)NC(=O)[C@H](C(C)C)NC(=O)[C@H](Cc3ccc(-c4ccccc4)cc3)NC(=O)[C@@H](CC(C)C)NC2=O)c1 [Compound 1141] ({CH2CO}-Y(Carboxymethyl)Y(Carboxymethyl)D[Phe(3-Me)][dL][Bip]V[Orn][dL][Dab]LVSC[Orn][Aun]-OH; thioether N-14)
30.1 nM	CC(C)C[C@H]1NC(=O)[C@H](CCCN)NC(=O)[C@H](Cc2ccc(O)cc2)NC(=O)[C@H](Cc2ccc(-c3ccccc3)cc2)NC(=O)[C@H](C(C)C)NC(=O)[C@H](Cc2c[nH]c3ccccc23)NC(=O)[C@H](CC(=O)O)NC(=O)[C@H](Cc2ccc(OCC(=O)O)cc2)NC(=O)[C@H]([C@@H](C)O)NC(=O)CSC[C@@H](C(=O)N[C@@H](CCN)C(=O)NCCCCCCCCCCC(=O)O)NC(=O)[C@H]([C@@H](C)O)NC(=O)[C@H](C(C)C)NC(=O)[C@H](CC2CCCCC2)NC(=O)[C@H](CCN)NC1=O [Compound 2727] ({CH2CO}-TY(Carboxymethyl)DWV[Bip]Y[Orn][dL][Dab][Cha]VTC[Dab][Aun]-OH; thioether N-14)

From patent US20260022142A1, “MACROCYCLIC IMMUNOMODULATORS” (Bristol-Myers Squibb Company, priority 2022, published 2026)
